Patent US9827190B2, “Intradermal delivery of immunological compositions comprising toll-like receptor 7 agonists” (GLAXOSMITHKLINE BIOLOGICALS SA, priority 2013, dated 2017)

Test system: X181 H1N1 Cal, X187 H3N2 Perth and B/Brisbane
Type: in vivo, Balb/c mice
Details: adjuvant dose 100 μg, 20 μl

Compound: Cc1ccc2c(c1)nc(N)c1ncc(CCc3ccc(OCCOCCOCCC(F)(F)P(=O)(O)O)cc3C)cc12 [T1b]
- immune response compared to both intradermal or intramuscular immunization using antigen alone: significantly improved immune response
